Source: US9228009B2, “Multi-hierarchical self-assembly of a collagen mimetic peptide” (WILLIAM MARSH RICE UNIVERSITY, priority 2011, dated 2016)
Non-standard residues stand in square brackets, D forms with d. Residues, ends and D or L forms follow the SMILES beside them. Hyp = O=C(O)[C@@H]1C[C@@H](O)CN1

Tests used:
collagenase type IV = assay: Collagenase degradation study of hydrogels; assay type: in vitro ADME; conditions: for hydrogel degradation state: w/ collagenase, 2.0% by weight gel
Description: (§1) As a simple functional test of the collagen hydrogel mimetic, we compared its ability to be broken down by collagenase (type IV, Invitrogen) the primary component of which is MMP2, a protease known to specifically cleave between the X and Gly residues of an X-Y-Gly repeat found in a triple helix.^42 (Pro-Lys-Gly)4(Pro-Hyp-Gly)4(Asp-Hyp-Gly)4 hydrogels were prepared at a concentration of 2.0% by weight in phosphate buffer and treated with either collagenase in HBSS (Hank's Balanced Salt Solution) or HBSS alone. The samples were allowed to incubate at room temperature (approximately 20° C.), 30° C. and 37° C. Hydrogels of rat-tail collagen were prepared in the same fashion with and without collagenase.
(§2) Using the previously described gelation procedure, gels of (Pro-Lys-Gly)4(Pro-Hyp-Gly)4(Asp-Hyp-Gly)4 were prepared at a concentration of 2.0% by weight in 10 mM phosphate buffer. Directly after annealing, 100 μl of solution was pipetted into two wells of a 96-well cell culture plate and allowed to incubate at room temperature overnight. A 0.3% by weight collagenase type IV solution was prepared by dissolving 15.0 mg of non-sterile lyophilized enzyme into 5 ml of Hank's Balanced Salt Solution (HBSS). The solution was then filter sterilized using a 0.2 μm filter attached to a syringe. Enzyme and buffer were from Invitrogen (Carlsbad, Calif.). After gelation was complete, 150 μl of collagenase was added on top of one well and 150 μL of HBSS was added on the other serving as a control. Three plates were prepared and incubated at room temperature (about 20° C.), 30° C. and 37° C. Each condition was observed and imaged at 0, 1, 4, 6, 12, 24 and 48 hours after addition of the collagenase or HBSS. Plates containing rat-tail collagen gels at a concentration of 3.0% by weight were prepared and analyzed in an identical manner. Table 1 and Table 2 below show collagenase mediated degradation of (Pro-Lys-Gly)4(Pro-Hyp-Gly)4(Asp-Hyp-Gly)4 and rat-tail collagen hydrogels, respectively. Samples were tested at room temperature (approximately 20° C., 30° C. and 37° C.) with and without collagenase. […] Control samples of (Pro-Lys-Gly)4(Pro-Hyp-Gly)4(Asp-Hyp-Gly)4 at room temperature and 30° C. were intact after 48 hours. However at 37° C. the hydrogels dissolved after 24 hours due to the proximity of this temperature to the triple helices melting temperature.

[1] = Hydrogel control in HBSS without collagenase; assay type: physicochemical; conditions: no collagenase (HBSS), 2.0% by weight gel
Description: as §1, §2

[2] = Circular dichroism thermal unfolding; assay type: physicochemical
Description: All peptide concentrations were measured by weight. All samples were adjusted to pH 7 with sodium hydroxide prior to the addition of buffer and then annealed for 15 minutes at 85° C. Lastly, the samples were incubated at room temperature for at least 12 hours prior to characterization to ensure complete assembly. Time course rheological studies are given in FIG. 13 to support this time scale.
All spectra and thermal unfolding studies were performed on a Jasco J-810 spectropolarimeter equipped with a Peltier temperature control system. Quartz cells were used with pathlengths of 0.01 cm and 0.1 cm depending on the peptide concentration and buffer. Spectra were collected from 190-250 nm. Melting experiments were performed from 5 to 85° C., monitoring at 225 nm, and the first derivative of the thermal unfolding curve was taken in order to determine the melting temperature of the sample. The molar residual ellipticity (MRE) is calculated from the measured ellipticity using the equation:
[formula] where θ is the ellipticity in mdeg, m is the molecular weight in g/mol, c is the concentration in mg/ml, l is the pathlength of the cuvette in cm, and nr is the number of amino acids in the peptide. The spectrum for 1.0% by weight is only shown from 250-205 nm due to the increase in background noise for higher concentration samples at lower wavelengths.

NCCCC[C@H](NC(=O)[C@@H]1CCCN1)C(=O)NCC(=O)N1CCC[C@H]1C(=O)N[C@@H](CCCCN)C(=O)NCC(=O)N1CCC[C@H]1C(=O)N[C@@H](CCCCN)C(=O)NCC(=O)N1CCC[C@H]1C(=O)N[C@@H](CCCCN)C(=O)NCC(=O)N1CCC[C@H]1C(=O)N1C[C@H](O)C[C@H]1C(=O)NCC(=O)N1CCC[C@H]1C(=O)N1C[C@H](O)C[C@H]1C(=O)NCC(=O)N1CCC[C@H]1C(=O)N1C[C@H](O)C[C@H]1C(=O)NCC(=O)N1CCC[C@H]1C(=O)N1C[C@H](O)C[C@H]1C(=O)NCC(=O)N[C@@H](CC(=O)O)C(=O)N1C[C@H](O)C[C@H]1C(=O)NCC(=O)N[C@@H](CC(=O)O)C(=O)N1C[C@H](O)C[C@H]1C(=O)NCC(=O)N[C@@H](CC(=O)O)C(=O)N1C[C@H](O)C[C@H]1C(=O)NCC(=O)N[C@@H](CC(=O)O)C(=O)N1C[C@H](O)C[C@H]1C(=O)NCC(=O)O [(Pro-Lys-Gly)4(Pro-Hyp-Gly)4(Asp-Hyp-Gly)4] (H-PKGPKGPKGPKGP[Hyp]GP[Hyp]GP[Hyp]GP[Hyp]GD[Hyp]GD[Hyp]GD[Hyp]GD[Hyp]G-OH; N-terminus assumed)
time after which hydrogel treated with collagenase was fully dissolved (collagenase type IV; 30° C.): 4 h
time after which hydrogel treated with collagenase was fully dissolved (collagenase type IV; 37° C.): 1 h
time after which hydrogel treated with collagenase was fully dissolved (collagenase type IV; room temperature (approximately 20° C.)): 4 h
hydrogel degradation state (collagenase type IV; 20° C., 0 h): intact
hydrogel degradation state (collagenase type IV; 20° C., 1 h): intact
hydrogel degradation state (collagenase type IV; 20° C., 4 h): dissolved
hydrogel degradation state (collagenase type IV; 20° C., 6 h): dissolved
hydrogel degradation state (collagenase type IV; 20° C., 12 h): dissolved
hydrogel degradation state (collagenase type IV; 20° C., 24 h): dissolved
hydrogel degradation state (collagenase type IV; 20° C., 48 h): dissolved
hydrogel degradation state (collagenase type IV; 30° C., 0 h): intact
hydrogel degradation state (collagenase type IV; 30° C., 1 h): intact
hydrogel degradation state (collagenase type IV; 30° C., 4 h): dissolved
hydrogel degradation state (collagenase type IV; 30° C., 6 h): dissolved
hydrogel degradation state (collagenase type IV; 30° C., 12 h): dissolved
hydrogel degradation state (collagenase type IV; 30° C., 24 h): dissolved
hydrogel degradation state (collagenase type IV; 30° C., 48 h): dissolved
hydrogel degradation state (collagenase type IV; 37° C., 0 h): intact
hydrogel degradation state (collagenase type IV; 37° C., 1 h): dissolved
hydrogel degradation state (collagenase type IV; 37° C., 4 h): dissolved
hydrogel degradation state (collagenase type IV; 37° C., 6 h): dissolved
hydrogel degradation state (collagenase type IV; 37° C., 12 h): dissolved
hydrogel degradation state (collagenase type IV; 37° C., 24 h): dissolved
hydrogel degradation state (collagenase type IV; 37° C., 48 h): dissolved
hydrogel degradation state ([1]; 20° C., 0 h): intact
hydrogel degradation state ([1]; 20° C., 1 h): intact
hydrogel degradation state ([1]; 20° C., 4 h): intact
hydrogel degradation state ([1]; 20° C., 6 h): intact
hydrogel degradation state ([1]; 20° C., 12 h): intact
hydrogel degradation state ([1]; 20° C., 24 h): intact
hydrogel degradation state ([1]; 20° C., 48 h): intact
hydrogel degradation state ([1]; 30° C., 0 h): intact
hydrogel degradation state ([1]; 30° C., 1 h): intact
hydrogel degradation state ([1]; 30° C., 4 h): intact
hydrogel degradation state ([1]; 30° C., 6 h): intact
hydrogel degradation state ([1]; 30° C., 12 h): intact
hydrogel degradation state ([1]; 30° C., 24 h): intact
hydrogel degradation state ([1]; 30° C., 48 h): intact
hydrogel degradation state ([1]; 37° C., 0 h): intact
hydrogel degradation state ([1]; 37° C., 1 h): intact
hydrogel degradation state ([1]; 37° C., 4 h): intact
hydrogel degradation state ([1]; 37° C., 6 h): intact
hydrogel degradation state ([1]; 37° C., 12 h): intact
hydrogel degradation state ([1]; 37° C., 24 h): dissolved
hydrogel degradation state ([1]; 37° C., 48 h): dissolved
triple helix melting temperature ([2]; 10 mM phosphate buffer, pH 7, first derivative of CD unfolding curve at 225 nm): 40-41 °C
triple helix cooperative transition (melting) temperature ([2]; 1.0% by weight in phosphate): 41 °C
melting transition ([2]; gel-forming samples in additional buffers (water, Tris, PBS), pH 7): 40-41 °C
melting temperature ([2]; samples that did not form gels in additional buffers (water, Tris, PBS), pH 7): around 23 °C
